Where a name gives a salt, the structure may show the parent alone.
Compound `COc1ccccc1N1CCN(CCC(C(=O)C2CCCCC2)c2ccccc2)CC1.O=C(O)C(=O)O` (centres unmarked) [Example 2, 1-(2-methoxyphenyl)-4-[3-(cyclohexanecarbonyl)-3-(phenyl)propyl]piperazine oxalate] has a melting point of 149 to 151 °C. `COc1ccccc1N1CCN(CCC(C(=O)c2ccccc2)c2ccccc2)CC1.O=C(O)C(=O)O` (centres unmarked) [Example 1, 1-(2-methoxyphenyl)-4-[3-(benzoyl)-3-(phenyl)propyl]piperazine Oxalate] showed a melting point of 161 to 163 °C. `COc1ccccc1N1CCN(CCC(C)(C(=O)c2ccccc2)c2ccccc2)CC1.O=C(O)C(=O)O` (centres unmarked) [Example 5, 1-(2-methoxyphenyl)-4-[3-(benzoyl)-3-(phenyl)butyl]piperazine oxalate] showed a melting point of 192 to 193 °C. `COc1ccccc1N1CCN(CCC(C(=O)C2CCCC2)c2ccccc2)CC1` (centres unmarked) (as salt: hydrochloride) [Example 7, 1-(2-methoxyphenyl)-4-[3-(cyclopentanecarbonyl)-3-(phenyl)propyl]piperazine dihydrochloride] gave a melting point of 210 to 212 °C. `COc1ccccc1N1CCN(CCC(C(=O)C2CCCCCC2)c2ccccc2)CC1` (centres unmarked) (as salt: hydrochloride) [Example 6, 1-(2-methoxyphenyl)-4-[3-(cycloheptanecarbonyl)-3-(phenyl)propyl]piperazine dihydrochloride] gave a melting point of 193 to 194 °C. Compound `COc1ccccc1N1CCN(CCC(c2ccccc2)C(O)C2CCCCC2)CC1.O=C(O)C(=O)O` (centres unmarked) [Example 8, 1-(2-methoxyphenyl)-4-[4-(cyclohexyl)-4-(hydroxy)-3-(phenyl)butyl]piperazine oxalate] has a melting point of 100 to 102 °C. In the case of `COc1ccccc1N1CCN(CCC(C)(C(=O)C2CCCCC2)c2ccccc2)CC1` (centres unmarked) [Example 9, 1-(2-methoxyphenyl)-4-[3-(cyclohexanecarbonyl)-3-(phenyl)butyl]piperazine], the melting point is reported as 192.81 °C. Work on `O=C(C1CCCCC1)C(CCN1CCN(c2ccccn2)CC1)c1ccccc1.O=C(O)C(=O)O` (centres unmarked) [Example 3, 1-(2-pyridyl)-4-[3-(cyclohexanecarbonyl)-3-(phenyl)propyl]piperazine oxalate] yielded a melting point of 185 to 187 °C.
